According to patent US11534443B2, “Quinazoline compounds, preparation method, use, and pharmaceutical composition thereof” (INSTITUTE OF MATERIA MEDICA, CHINESE ACADEMY OF MEDICAL …, priority 2016, dated 2022):

Legend:
PI3Kα = PI3Kα (Homo sapiens (Human), UniProt P42336); assay: Biochemical evaluation of activity of PI3Kα (Kinase-Glo luminescence kinase assay); conditions: 25 μM ATP, 50 μM PIP2, 1 h at room temperature
Experimental: The potency of compounds in the present intention against PI3Kα was assessed by in vitro kinase assay. The kinase activity of PI3Kα was determined by detecting the level of ADP produced in the kinase reaction with luciferase-based luminescence detection.
The Kinase-Glo™ Kinase Assay Kit was purchased from Promega. All assays were performed at room temperature using white OptiPlate™-384 well plate. The PI3Kα kinase was purchased from Invitrogen. The substrate was PIP2 from Invitrogen. The kinase buffer contained 50 mM Hepes (pH 7.5), 3 mM MgCl2, 100 mM NaCl, 1 mM EGTA, 0.03% CHAPS and 2 mM DTT. […] The substrate solution contained 100 μM PIP2 and 50 μM ATP. The test compound was diluted to 10 mM in 100% DMSO and serially diluted three times into ten different concentrations in 100% DMSO. The compound diluted in 100% DMSO was diluted 25-fold in 1×kinase buffer. 2.5 μL of the diluted compound solution and 2.5 μL PI3Kα kinase solution were added to each well of a 384-well plate. The reaction was initiated by addition of 5 μL substrate solution to each well. […] The plate was then covered and the reaction was allowed to proceed for one hour at room temperature, followed by the addition of 10 μL Kinase-Glo™ reagent to each well to stop the reaction.
The percentage of inhibition was calculated as follows: Inhibition %=100−(max−sample RLU)/(max−min)*100
wherein sample RLU was the luminescence reading for a given compound concentration, min was the reading of DMSO control, and max was the reading of the enzyme-free control. The IC50 value was calculated with the XLfit program in Excel.

[1] = test system: human lung cancer cell NCI-H460; assay: Tumor cell viability by MTT assay; format: cell-based; conditions: Homo sapiens, NCI-H460, 96 h
Experimental: After 24 hours, 100 μL of fresh medium containing different concentrations of test compounds and the corresponding solvent control was added into each well to a final concentration of DMSO less than 0.2%. Six to nine concentration groups were set for each test compound, and three parallel wells were set for each group. The plate was incubated at 5% CO2, 37° C. for 96 hours. 20 μL of freshly prepared PBS solution containing 5 mg/mL MTT was added to each well. The supernatant was discarded after incubation for another 4 hours. 150 μL DMSO was added to each well to dissolve the MTT formazan precipitate. After being mixed by a micro-oscillator, the optical density (OD) was measured at the wavelength of 570 nm, and the tumor cells treated with DMSO were used as a control group.

Sequence of PI3Kα (P42336 whole entry): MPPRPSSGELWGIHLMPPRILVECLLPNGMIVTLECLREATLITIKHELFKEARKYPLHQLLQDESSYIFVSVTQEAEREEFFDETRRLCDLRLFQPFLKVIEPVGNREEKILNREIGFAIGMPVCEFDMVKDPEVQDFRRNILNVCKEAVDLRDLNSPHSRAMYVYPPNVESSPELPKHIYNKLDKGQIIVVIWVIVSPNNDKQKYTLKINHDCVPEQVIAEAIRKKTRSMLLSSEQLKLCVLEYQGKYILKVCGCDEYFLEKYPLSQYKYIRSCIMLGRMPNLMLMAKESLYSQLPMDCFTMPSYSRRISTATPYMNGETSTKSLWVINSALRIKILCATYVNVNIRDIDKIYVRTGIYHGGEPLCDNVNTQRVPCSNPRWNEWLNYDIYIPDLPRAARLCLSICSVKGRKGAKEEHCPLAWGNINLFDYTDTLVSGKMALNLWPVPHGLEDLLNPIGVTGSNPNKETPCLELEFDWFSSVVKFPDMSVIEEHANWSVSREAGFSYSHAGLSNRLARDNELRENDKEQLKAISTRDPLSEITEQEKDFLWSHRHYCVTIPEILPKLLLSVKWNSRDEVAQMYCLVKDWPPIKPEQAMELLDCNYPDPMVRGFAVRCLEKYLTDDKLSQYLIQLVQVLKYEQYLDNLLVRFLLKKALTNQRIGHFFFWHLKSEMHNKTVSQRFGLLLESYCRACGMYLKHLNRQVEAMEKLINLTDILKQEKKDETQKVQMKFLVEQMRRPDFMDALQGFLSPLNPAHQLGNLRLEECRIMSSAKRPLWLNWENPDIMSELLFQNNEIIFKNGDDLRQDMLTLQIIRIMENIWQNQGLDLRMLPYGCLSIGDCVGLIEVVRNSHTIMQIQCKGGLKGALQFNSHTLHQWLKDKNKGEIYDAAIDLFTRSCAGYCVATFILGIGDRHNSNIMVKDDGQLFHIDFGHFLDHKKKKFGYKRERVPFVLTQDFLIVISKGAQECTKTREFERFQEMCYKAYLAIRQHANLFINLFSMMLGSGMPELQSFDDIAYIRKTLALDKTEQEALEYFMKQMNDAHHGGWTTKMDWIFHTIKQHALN
Sequence of PI3Kα (P27986 whole entry partner): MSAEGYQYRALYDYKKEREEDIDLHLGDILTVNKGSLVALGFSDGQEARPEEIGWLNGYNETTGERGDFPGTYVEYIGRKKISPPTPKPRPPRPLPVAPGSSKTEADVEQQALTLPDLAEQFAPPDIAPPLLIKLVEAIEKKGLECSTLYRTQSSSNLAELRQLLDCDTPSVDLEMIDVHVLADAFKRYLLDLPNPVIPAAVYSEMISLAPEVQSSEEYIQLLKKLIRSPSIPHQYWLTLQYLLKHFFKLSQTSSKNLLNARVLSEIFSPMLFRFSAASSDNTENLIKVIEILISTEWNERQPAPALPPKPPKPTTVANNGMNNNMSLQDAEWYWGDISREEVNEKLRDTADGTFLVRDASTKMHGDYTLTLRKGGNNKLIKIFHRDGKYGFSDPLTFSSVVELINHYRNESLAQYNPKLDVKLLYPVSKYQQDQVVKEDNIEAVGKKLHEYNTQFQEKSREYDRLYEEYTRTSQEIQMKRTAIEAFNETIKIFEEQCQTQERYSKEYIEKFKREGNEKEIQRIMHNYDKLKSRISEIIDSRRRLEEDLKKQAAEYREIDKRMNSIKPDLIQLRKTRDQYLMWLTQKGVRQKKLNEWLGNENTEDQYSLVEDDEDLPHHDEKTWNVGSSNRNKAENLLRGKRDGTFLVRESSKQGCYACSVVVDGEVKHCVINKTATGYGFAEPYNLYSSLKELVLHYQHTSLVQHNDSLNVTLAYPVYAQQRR

SMILES | IC50 (PI3Kα) [nM] | IC50 [1] [nM]
COc1ncc(-c2cc(OC3CCOCC3)c3nc(NC(C)=O)nc(C)c3c2)cc1NS(C)(=O)=O [Example 43, N-(6-(6-methoxy-5-(methylsulfonamido)pyridin-3-yl)-4-methyl-8-((tetrahydro-2H-pyran-4-yl)oxy)quinazolin-2-yl)acetamide] | 10 | 4000
COc1ncc(-c2cc(O[C@H]3CCOC3)c3nc(N)nc(C)c3c2)cc1NS(C)(=O)=O [Example 12, (S)—N-(5-(2-amino-4-methyl-8-((tetrahydrofuran-3-yl)oxy)quinazolin-6-yl)-2-methoxypyridin-3-yl)methanesulfonamide] | 4.5 | 2300
COc1ncc(-c2cc(O[C@@H]3CCOC3)c3ncnc(C)c3c2)cc1NS(C)(=O)=O [Example 50, (R)—N-(2-methoxy-5-(4-methyl-8-((tetrahydrofuran-3-yl)oxy)quinazolin-6-yl)pyridin-3-yl)methanesulfonamide] | 2.2 | 790
COc1ncc(-c2cc(OC3CCCCC3)c3nc(N)nc(C)c3c2)cc1NS(=O)(=O)c1ccc(F)cc1F [Example 22, N-(5-(2-amino-8-(cyclohexyloxy)-4-methylquinazolin-6-yl)-2-methoxypyridin-3-yl)-2,4-difluorobenzenesulfonamide] | 0.6 | 96
Cc1ncc(-c2cc(OC3CCOCC3)c3nc(N)nc(C)c3c2)cc1NS(=O)(=O)c1ccc(F)cc1F [Example 7, N-(5-(2-amino-4-methyl-8-((tetrahydro-2H-pyran-4-yl)oxy)quinazolin-6-yl)-2-methylpyridin-3-yl)-2,4-difluorobenzenesulfonamide] | 1.1 | 2100
COc1ncc(-c2cc(OCC3CCOCC3)c3ncnc(C)c3c2)cc1NS(=O)(=O)c1ccc(F)cc1F [Example 53, N-(2-methoxy-5-(4-methyl-8-((tetrahydro-2H-pyran-4-yl)methoxy)quinazolin-6-yl)pyridin-3-yl)-2,4-difluorobenzenesulfonamide] | 0.73 | 38
COc1ncc(-c2cc(OCCN(C)C)c3ncnc(C)c3c2)cc1NS(=O)(=O)c1ccc(F)cc1F [Example 67, N-(5-(8-(2-(dimethylamino)ethoxy)-4-methylquinazolin-6-yl)-2-methoxypyridin-3-yl)-2,4-difluorobenzenesulfonamide] | 6.1 | 3500
CNc1nc(C)c2cc(-c3cnc(OC)c(NS(=O)(=O)c4ccc(F)cc4F)c3)cc(OCC3CCOC3)c2n1 (stereo not drawn) [Example 38, N-(2-methoxy-5-(4-methyl-2-(methylamino)-8-((tetrahydrofuran-3-yl)methoxy)quinazolin-6-yl)pyridin-3-yl)-2,4-difluorobenzenesulfonamide] | 2.3 | 310
COc1ncc(-c2cc(OC3CCOCC3)c3nc(N)nc(C)c3c2)cc1NS(=O)(=O)c1ccc(F)cc1Cl [Example 2, N-(5-(2-amino-4-methyl-8-((tetrahydro-2H-pyran-4-yl)oxy)quinazolin-6-yl)-2-methoxypyridin-3-yl)-2-chloro-4-fluorobenzenesulfonamide] | 0.72 | 17
COc1ncc(-c2cc(O[C@H]3CCOC3)c3ncnc(C)c3c2)cc1NS(=O)(=O)c1ccc(F)cc1F [Example 51, (S)—N-(2-methoxy-5-(4-methyl-8-((tetrahydrofuran-3-yl)oxy)quinazolin-6-yl)pyridin-3-yl)-2,4-difluorobenzenesulfonamide] | 0.72 | 32
COc1ncc(-c2cc(O[C@@H]3CCOC3)c3nc(N)nc(C)c3c2)cc1NS(C)(=O)=O [Example 10, (R)—N-(5-(2-amino-4-methyl-8-((tetrahydrofuran-3-yl)oxy)quinazolin-6-yl)-2-methoxypyridin-3-yl)methanesulfonamide] | 3.8 | 2200
CNc1nc(C)c2cc(-c3cnc(OC)c(NS(=O)(=O)c4ccc(F)cc4Cl)c3)cc(O[C@@H]3CCOC3)c2n1 [Example 33, (R)—N-(2-methoxy-5-(4-methyl-2-(methylamino)-8-((tetrahydrofuran-3-yl)oxy)quinazolin-6-yl)pyridin-3-yl)-2-chloro-4-fluorobenzenesulfonamide] | 1.7 | 100
CNc1nc(C)c2cc(-c3cnc(OC)c(NS(=O)(=O)c4ccc(F)cc4F)c3)cc(OC3CCOC(C)(C)C3)c2n1 (stereo not drawn) [Example 37, N-(5-(8-((2,2-dimethyltetrahydro-2H-pyran-4-yl)oxy)-4-methyl-2-(methylamino)quinazolin-6-yl)-2-methoxypyridin-3-yl)-2,4-difluorobenzenesulfonamide] | 2.3 | 250
COc1ncc(-c2cc(OC3CCCC3)c3ncnc(C)c3c2)cc1NS(=O)(=O)c1ccc(F)cc1F [Example 56, N-(5-(8-(cyclopentyloxy)-4-methylquinazolin-6-yl)-2-methoxypyridin-3-yl)-2,4-difluorobenzenesulfonamide] | 0.92 | 73
Cc1ncnc2c(OC3CCOCC3)cc(-c3cnc(Cl)c(NS(=O)(=O)c4ccc(F)cc4)c3)cc12 [Example 73, N-(2-chloro-5-(4-methyl-8-((tetrahydro-2H-pyran-4-yl)oxy)quinazolin-6-yl)pyridin-3-yl)-4-fluorobenzenesulfonamide] | 1.3 | 740
COc1ncc(-c2cc(OC3CCN(C)CC3)c3ncnc(C)c3c2)cc1NS(=O)(=O)c1ccc(F)cc1F [Example 62, N-(2-methoxy-5-(4-methyl-8-((1-methylpiperidin-4-yl)oxy)quinazolin-6-yl)pyridin-3-yl)-2,4-difluoro-benzenesulfonamide] | 2.5 | 260
COc1ncc(-c2cc(OC3CCOCC3)c3nc(NC(C)=O)nc(C)c3c2)cc1NS(=O)(=O)c1ccc(F)cc1F [Example 42, N-(6-(5-(2,4-difluorophenylsulfonamido)-6-methoxypyridin-3-yl)-4-methyl-8-((tetrahydro-2H-pyran-4-yl)oxy)quinazolin-2-yl)acetamide] | 1.1 | 530
COc1ncc(-c2cc(OC3CCC3)c3ncnc(C)c3c2)cc1NS(=O)(=O)c1ccc(F)cc1F [Example 70, N-(5-(8-cyclobutoxy-4-methylquinazolin-6-yl)-2-methoxypyridin-3-yl)-2,4-difluorobenzenesulfonamide] | 0.9 | 22
CNc1nc(C)c2cc(-c3cnc(OC)c(NS(=O)(=O)c4ccc(F)cc4F)c3)cc(OCC3CCOCC3)c2n1 [Example 36, N-(2-methoxy-5-(4-methyl-2-(methylamino)-8-((tetrahydro-2H-pyran-4-yl)methoxy)quinazolin-6-yl)pyridin-3-yl)-2,4-difluoro-benzenesulfonamide] | 2.2 | 400
COc1ncc(-c2cc(OCC3(C)COC3)c3ncnc(C)c3c2)cc1NS(=O)(=O)c1ccc(F)cc1F [Example 59, N-(2-methoxy-5-(4-methyl-8-((3-methyloxetan-3-yl)methoxy)quinazolin-6-yl)pyridin-3-yl)-2,4-difluoro-benzenesulfonamide] | 0.74 | 17
CCNc1nc(C)c2cc(-c3cnc(OC)c(NS(=O)(=O)c4ccc(F)cc4F)c3)cc(OC3CCOCC3)c2n1 [Example 30, N-(5-(2-(ethylamino)-4-methyl-8-((tetrahydro-2H-pyran-4-yl)oxy)quinazolin-6-yl)-2-methoxypyridin-3-yl)-2,4-difluorobenzenesulfonamide] | 1.3 | 240
COc1ncc(-c2cc(OC3CCOCC3)c3nc(N)nc(C)c3c2)cc1NS(=O)(=O)C1CC1 [Example 6, N-(5-(2-amino-4-methyl-8-((tetrahydro-2H-pyran-4-yl)oxy)quinazolin-6-yl)-2-methoxypyridin-3-yl)cyclopropanesulfonamide] | 2.3 | 930
COc1ncc(-c2cc(O[C@@H]3CCOC3)c3ncnc(C)c3c2)cc1NS(=O)(=O)c1ccc(F)cc1F [Example 49, (R)—N-(2-methoxy-5-(4-methyl-8-((tetrahydrofuran-3-yl)oxy)quinazolin-6-yl)pyridin-3-yl)-2,4-difluorobenzenesulfonamide] | 0.76 | 34
COc1ncc(-c2cc(O[C@H]3CCOC3)c3nc(N)nc(C)c3c2)cc1NS(=O)(=O)c1ccc(F)cc1F [Example 11, (S)—N-(5-(2-amino-4-methyl-8-((tetrahydrofuran-3-yl)oxy)quinazolin-6-yl)-2-methoxypyridin-3-yl)-2,4-difluorobenzenesulfonamide] | 0.94 | 94
